Measurements: patent publication US20030035843A1, “Method for processing and preserving collagen-based tissues for transplantation” (LifeCell Corporation, a Delaware corporation, priority 1990, published 2003)

Legend:
human cadaver skin = assay: Removal of epidermis/keratinocytes from human cadaver skin by enzyme or salt incubation
Description: Alternatively, enzymes may be used to accomplish decellularization, including but not limited to dispase II, trypsin, and thermolysin. These enzymes react with different components of collagen and intercellular connections in achieving their effects. Dispase II attacks Type IV collagen, which is a component of the lamina densa and anchoring fibrils of the basement membrane. Thermolysin attacks the bulbous phemphigoid antigen in the hemidesmosome of the basal layer of keratinocytes. Trypsin attacks the desmosome complex between cells. Due to the proteolytic nature of these enzymes, care must be taken that cellular removal occurs without significant damage to the extracellular matrix, including the basement membrane complex. This is a function of concentration, time and temperature. If used for too long a time or at too high a concentration, dispase II for example can completely remove the basement membrane complex from the dermis.

porcine skin = assay: Separation of epidermis and dermis of porcine skin by salt incubation; settings: 1 molar, 48 hours

Molecule	separation of the epidermis and dermis (human cadaver skin; 1 molar, 16 hours, human skin)	separation of the epidermis and dermis (porcine skin)	removal of keratinocytes (human cadaver skin; 200 ug/ml, 30 minutes, 4° C., human cadaver skin)
[Cl-].[Na+] [sodium chloride]	clean separation of the epidermis and dermis without damage to the basement membrane complex	clean separation of the epidermis and dermis without damage to the basement membrane complex	
Thermolysin: enzyme used for decellularization; attacks the bulbous phemphigoid antigen in the hemidesmosome (protein, UniProt P00800 233-548, looked up) Thermolysin: ITGTSTVGVGRGVLGDQKNINTTYSTYYYLQDNTRGNGIFTYDAKYRTTLPGSLWADADNQFFASYDAPAVDAHYYAGVTYDYYKNVHNRLSYDGNNAAIRSSVHYSQGYNNAFWNGSQMVYGDGDGQTFIPLSGGIDVVAHELTHAVTDYTAGLIYQNESGAINEAISDIFGTLVEFYANKNPDWEIGEDVYTPGISGDSLRSMSDPAKYGDPDHYSKRYTGTQDNGGVHINSGIINKAAYLISQGGTHYGVSVVGIGRDKLGKIFYRALTQYLTPTSNFSQLRAAAVQSATDLYGSTSQEVASVKQAFDAVGVK			essentially remove all keratinocytes
